Experimental data: patent EP2678315B1, “(Pyridin-4-yl)benzylamides as allosteric modulators of alpha 7 nAChR” (Janssen Pharmaceutica, N.V., priority 2011, dated 2012)
Read-outs that look alike come from different tables or passages of the source.

Target: T1, human alpha 7-wt nAChR (Homo sapiens, UniProt P36544)
T1 construct: expressed in transfected cells
Test: Ca2+ flux imaging (FDSS) (protocol B)
Type: cell-based
Settings: for EC50: read-out: pEC50 (converted); for Emax: read-out: % Efficacy
Experimental: Example D.1 : Ca^2+ flux imaging (FDSS) (protocol B)
• a) Assay buffer Hanks buffered saline solution (HBSS, Invitrogen, Belgium), supplemented with 10 mM HEPES (Invitrogen, Belgium), CaCl2 to a final concentration of 5 mM, 0.1 % Bovine serum albumin (Sigma-Aldrich NV, Belgium). • b) Calcium-sensitive dye - Fluo-4AM Fluo-4AM (Molecular Probes, USA) was dissolved in DMSO containing 10% Pluronic acid (Molecular Probes, USA) to give a stock solution which was diluted in assay buffer supplemented with 5 mM probenicid (Sigma, Aldrich NV, Belgium) to give a final concentration of 2 µM • c) 384-well plates Black-sided, transparent bottomed 384 well plates coated with poly-D-lysine, PDL pre-coated (Coming, Incorporated, USA) • d) Calcium flux measurement A Functional drug screening system (FDSS, Hamamatsu) was used to measure intracellular free-calcium flux signals.
Monolayers of human alpha 7-wt nAChR-expressing cells were grown in black-sided, transparent bottomed 384 well plates coated with PDL for 24 hours prior to loading with a fluorescent calcium indicator, fluo-4AM for up to 120 minutes.
PAM activity was detected in real time by applying the compounds to be tested to the loaded cells along with an alpha 7 nicotinic receptor agonist during constant monitoring of cellular fluorescence in a FDSS. Compounds giving peak fluorescent responses greater than the response due to agonist alone, were consideted to be alpha 7 nAChR PAMs. The alpha 7 nicotinic receptor agonist was choline, applied at a sub-maximal concentration of 100 µM. In a further setting of the present invention the compounds were applied prior to the alpha 7 nicotinic receptor agonist, in a particular 10 minutes prior to the agonist.
A control response to choline was calculated on each plate from the difference in peak in fluorescence in wells receiving either choline or assay buffer alone. Compounds of the present invention were tested at a concentration range from 0.01 µM to 30 µM. Compounds were considered to have an interesting activity when they potentiated the choline signal at least with 200 % when tested at a concentration of 30 µM (the efficacy of 100 µM choline was defined as 100% in the absence of a PAM). An EC50 (or pEC50) was determined as a concentration relating to half the maximal effect, when a clear sigmoidal curve with top plateau was obtained.

T1 sequence (P36544 23-502): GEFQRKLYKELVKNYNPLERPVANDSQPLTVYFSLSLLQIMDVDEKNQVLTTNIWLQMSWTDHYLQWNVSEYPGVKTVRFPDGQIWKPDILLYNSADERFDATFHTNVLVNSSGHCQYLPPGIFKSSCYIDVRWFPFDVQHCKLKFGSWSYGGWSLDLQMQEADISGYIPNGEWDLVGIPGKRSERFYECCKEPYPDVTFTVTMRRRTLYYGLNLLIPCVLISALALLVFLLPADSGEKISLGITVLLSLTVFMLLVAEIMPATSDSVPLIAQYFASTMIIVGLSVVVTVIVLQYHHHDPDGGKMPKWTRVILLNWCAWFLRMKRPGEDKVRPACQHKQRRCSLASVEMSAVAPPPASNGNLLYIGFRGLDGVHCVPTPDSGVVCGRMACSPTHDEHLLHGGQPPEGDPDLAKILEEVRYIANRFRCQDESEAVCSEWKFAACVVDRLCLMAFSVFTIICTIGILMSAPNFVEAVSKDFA

Structure (SMILES)	EC50 (Ca2+ assay as described in D.1) [µM]	Emax [%]	Emax (Ca2+ assay as described in D.1) [%]
Cc1cc(-c2ccc(N3C[C@@H](C)O[C@@H](C)C3)c(F)c2CNC(=O)C(C)C2CC2)cc(C)n1 (mixture of isomers) [Compound 50]	0.479	–	–
Cc1cc(-c2ccc(N3C[C@@H](C)O[C@@H](C)C3)cc2CNC(=O)C(C)C2CC2)cc(C)n1 (relative stereo) [Compound 8]	0.024	353	–
Cc1cc(-c2ccc(C3C[C@@H](C)O[C@@H](C)C3)c(F)c2CNC(=O)CC2CC2)cc(C)n1 (relative stereo) [Compound 53]	0.457	–	–
Cc1cc(-c2ccc(C3C[C@@H](C)O[C@@H](C)C3)c(F)c2CNC(=O)C2CC2)cc(C)n1 (relative stereo) [Compound 54]	1.58	–	–
Cc1cc(-c2ccc(C3C[C@@H](C)O[C@@H](C)C3)c(F)c2CNC(=O)CC(C)C)cc(C)n1 (relative stereo) [Compound 55]	0.229	890	–
Cc1cc(-c2ccc(C3C[C@@H](C)O[C@@H](C)C3)c(F)c2CNC(=O)CC2CCC2)cc(C)n1 (relative stereo) [Compound 60]	0.178	–	–
Cc1cc(-c2ccc(C3C[C@@H](C)O[C@@H](C)C3)c(F)c2CNC(=O)C(C)C)cc(C)n1 (relative stereo) [Compound 61]	0.871	–	–
Cc1cc(-c2ccc(C3C[C@@H](C)O[C@@H](C)C3)c(F)c2CNC(=O)c2cc(C)on2)cc(C)n1 (relative stereo) [Compound 62]	0.708	–	–
Cc1cc(-c2ccc(C3C[C@@H](C)O[C@@H](C)C3)c(F)c2CNC(=O)c2conc2C)cc(C)n1 (relative stereo) [Compound 63]	1.07	–	–
Cc1cc(-c2ccc(N3C[C@@H](C)O[C@@H](C)C3)cc2CNC(=O)c2ccc(F)cc2C)cc(C)n1 [Compound 5]	0.00933	–	–
Cc1cc(-c2ccc(N3C[C@@H](C)O[C@@H](C)C3)cc2CNC(=O)CC(F)(F)F)cc(C)n1 [Compound 7]	–	–	287
Cc1cc(-c2ccc(N3C[C@@H](C)O[C@@H](C)C3)cc2CNC(=O)C(C)C)ccn1 [Compound 9]	0.24	–	–
Cc1cc(-c2ccc(N3C[C@@H](C)O[C@@H](C)C3)cc2CNC(=O)c2cc(C)on2)ccn1 [Compound 10]	1.23	–	–
Cc1cc(-c2ccc(N3C[C@@H](C)O[C@@H](C)C3)cc2CNC(=O)c2ccc(F)cc2C)ccn1 [Compound 11]	0.00933	912	–
Cc1cc(-c2ccc(N3C[C@@H](C)O[C@@H](C)C3)cc2CNC(=O)c2conc2C)ccn1 [Compound 12]	0.166	562	–
Cc1cc(-c2ccc(N3C[C@@H](C)O[C@@H](C)C3)cc2CNC(=O)CC2CC2)ccn1 [Compound 13]	0.282	915	–
Cc1cc(-c2ccc(N3C[C@@H](C)O[C@@H](C)C3)cc2CNC(=O)C2CC2)ccn1 [Compound 14]	0.589	–	–
CC(C)C(=O)NCc1cc(N2C[C@@H](C)O[C@@H](C)C2)ccc1-c1ccncc1 [Compound 15]	1.1	–	–
Cc1nocc1C(=O)NCc1cc(N2C[C@@H](C)O[C@@H](C)C2)ccc1-c1ccncc1 [Compound 17]	1.66	681	–

Structure (SMILES)	EC50 (Ca2+ assay as described in D.1) [µM]	Emax [%]	Emax (Ca2+ assay as described in D.1) [%]
Cc1cc(-c2ccc(N3C[C@H](C)C[C@H](C)C3)cc2CNC(=O)c2cc(C)on2)cc(C)n1 [Compound 18]	0.288	136	–
Cc1cc(-c2ccc(N3C[C@H](C(F)(F)F)C[C@H](C(F)(F)F)C3)cc2CNC(=O)c2conc2C)cc(C)n1 [Compound 19]	0.0501	266	–
Cc1cc(-c2ccc(N3C[C@H](C(F)(F)F)C[C@H](C(F)(F)F)C3)cc2CNC(=O)c2ccc(F)cc2C)cc(C)n1 [Compound 20]	0.011	466	–
Cc1cc(-c2ccc(N3C[C@H](C(F)(F)F)C[C@H](C(F)(F)F)C3)cc2CNC(=O)c2cc(C)on2)cc(C)n1 [Compound 21]	0.126	541	–
Cc1cc(-c2ccc(N3C[C@H](C(F)(F)F)C[C@H](C(F)(F)F)C3)cc2CNC(=O)CC2CC2)cc(C)n1 [Compound 22]	0.0162	458	–
Cc1cc(-c2ccc(N3C[C@H](C(F)(F)F)C[C@H](C(F)(F)F)C3)cc2CNC(=O)C(C)C)cc(C)n1 [Compound 23]	0.0158	322	–
Cc1cc(-c2ccc(N3CCOCC3)cc2CNC(=O)CC2CC2)cc(C)n1 [Compound 24]	1.78	466	–
Cc1cc(-c2ccc(N3CCOCC3)cc2CNC(=O)c2cc(C)on2)cc(C)n1 [Compound 25]	6.17	654	–
Cc1cc(-c2ccc(N3CCOCC3)cc2CNC(=O)c2conc2C)cc(C)n1 [Compound 26]	0.457	202	–
Cc1cc(-c2ccc(N3CCOCC3)cc2CNC(=O)c2ccc(F)cc2C)cc(C)n1 [Compound 27]	0.0575	419	–
Cc1cc(-c2ccc(N3CCOCC3)cc2CNC(=O)CC(F)(F)F)cc(C)n1 [Compound 28]	–	–	111
Cc1cc(-c2ccc(N3CCOCC3)cc2CNC(=O)C(C)C)cc(C)n1 [Compound 29]	0.813	256	–
Cc1cc(-c2ccc(N3CCOCC3)cc2CNC(=O)C2CC2)cc(C)n1 [Compound 30]	–	–	260
Cc1cc(-c2ccc(N3CCOCC3)cc2CNC(=O)c2ccc(F)cc2C)ccn1 [Compound 31]	0.479	576	–
Cc1cc(-c2ccc(N3CCCC(C(F)(F)F)C3)cc2CNC(=O)c2conc2C)cc(C)n1 (centres unmarked) [Compound 32]	–	–	72.4
Cc1cc(-c2ccc(N3CCCC(C(F)(F)F)C3)cc2CNC(=O)c2ccc(F)cc2C)cc(C)n1 (centres unmarked) [Compound 33]	0.245	278	–
Cc1cc(-c2ccc(N3CCCC(C(F)(F)F)C3)cc2CNC(=O)c2cc(C)on2)cc(C)n1 (centres unmarked) [Compound 34]	0.537	405	–
Cc1cc(-c2ccc(N3CCCC(C(F)(F)F)C3)cc2CNC(=O)CC2CC2)cc(C)n1 (centres unmarked) [Compound 35]	0.0263	389	–
Cc1cc(-c2ccc(N3CCCC(C(F)(F)F)C3)cc2CNC(=O)C(C)C)cc(C)n1 (centres unmarked) [Compound 36]	–	–	131

Structure (SMILES)	EC50 (Ca2+ assay as described in D.1) [µM]	Emax [%]	Emax (Ca2+ assay as described in D.1) [%]
Cc1cc(-c2ccc(N3C[C@@H](C)O[C@@H](C)C3)c(F)c2CNC(=O)CC2CC2)cc(C)n1 [Compound 37]	0.295	–	–
Cc1cc(-c2ccc(N3C[C@@H](C)O[C@@H](C)C3)c(F)c2CNC(=O)c2cc(C)on2)cc(C)n1 [Compound 38]	0.977	–	–
Cc1cc(-c2ccc(N3C[C@@H](C)O[C@@H](C)C3)c(F)c2CNC(=O)c2conc2C)cc(C)n1 [Compound 39]	0.832	–	–
Cc1cc(-c2ccc(N3C[C@@H](C)O[C@@H](C)C3)c(F)c2CNC(=O)c2ccc(F)cc2C)cc(C)n1 [Compound 40]	0.0417	–	–
Cc1cc(-c2ccc(N3C[C@@H](C)O[C@@H](C)C3)c(F)c2CNC(=O)C(C)C)cc(C)n1 [Compound 41]	0.575	–	–
Cc1cc(-c2ccc(N3C[C@@H](C)O[C@@H](C)C3)c(F)c2CNC(=O)C2CC2)cc(C)n1 [Compound 42]	1.17	–	–
Cc1cc(-c2ccc(N3C[C@@H](C)O[C@@H](C)C3)c(F)c2CNC(=O)CC(C)C)cc(C)n1 [Compound 43]	0.12	–	–
Cc1cc(-c2ccc(N3C[C@@H](C)O[C@@H](C)C3)c(F)c2CNC(=O)CCCC(F)(F)F)cc(C)n1 [Compound 44]	0.316	–	–
Cc1cc(-c2ccc(N3C[C@@H](C)O[C@@H](C)C3)c(F)c2CNC(=O)CC2CCC2)cc(C)n1 [Compound 45]	0.138	–	–
Cc1cc(-c2ccc(N3C[C@@H](C)O[C@@H](C)C3)c(F)c2CNC(=O)C2CCCCC2)cc(C)n1 [Compound 46]	0.0912	–	–
Cc1cc(-c2ccc(N3C[C@@H](C)O[C@@H](C)C3)c(F)c2CNC(=O)CC(C)(C)C)cc(C)n1 [Compound 48]	0.024	–	–
Cc1cc(-c2ccc(N3C[C@@H](C)O[C@@H](C)C3)c(F)c2CNC(=O)c2cnc(Cl)cc2Cl)cc(C)n1 [Compound 51]	0.148	–	–
Cc1cc(-c2ccc(N3C[C@@H](C)O[C@@H](C)C3)c(F)c2CNC(=O)c2cccc(Cl)c2F)cc(C)n1 [Compound 52]	0.479	–	–
Cc1cc(-c2ccc(N3CCO[C@@H](C(F)(F)F)C3)c(F)c2CNC(=O)C(C)C)cc(C)n1 [Compound 56]	0.155	–	–
Cc1cc(-c2ccc(N3CCO[C@@H](C(F)(F)F)C3)c(F)c2CNC(=O)c2cc(C)on2)cc(C)n1 [Compound 57]	0.234	–	–
Cc1cc(-c2ccc(N3CCO[C@@H](C(F)(F)F)C3)c(F)c2CNC(=O)c2conc2C)cc(C)n1 [Compound 58]	0.269	–	–
Cc1cc(-c2ccc(N3CCO[C@@H](C(F)(F)F)C3)c(F)c2CNC(=O)CC2CC2)cc(C)n1 [Compound 59]	0.0832	–	–
Cc1cc(-c2ccc(N3CCO[C@H](C(F)(F)F)C3)c(F)c2CNC(=O)CC2CC2)cc(C)n1 [Compound 64]	0.309	–	–
